Results as given in US9617286B2, “Fungicide N-[(trisubstitutedsilyl)methyl]-carboxamide derivatives” (BAYER INTELLECTUAL PROPERTY GMBH, priority 2011, dated 2017).

Tests used:
Sphaerotheca fuliginea = test: In vivo preventive test on Sphaerotheca fuliginea (powdery mildew on cucurbits); settings: gherkin plants, preventive spray, 500 ppm of active ingredient, grading 12 days after contamination
Outline: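 Gherkin plants at cotyledon stage Z11 were sprayed with compound and inoculated 24 h later with Sphaerotheca fuliginea spores (100 000 spores per mL). Incubation was at about 20 °C and 70–80% relative humidity. Efficacy (%) was graded 12 days post-inoculation against solvent-treated controls.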

Septoria tritici = test: In vivo preventive test on Septoria tritici (wheat); settings: preventive spray, 500 ppm of active ingredient, grading 24 days after contamination
Outline: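 Wheat (Scipion) at the 1-leaf stage was sprayed with compound, then inoculated 24 h later with Septoria tritici spores (500 000 spores/mL). Plants were held 72 h at 18 °C, 100% RH, then 21 days at 90% RH. Efficacy (%) was graded 24 days post-inoculation versus solvent-treated controls.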

Puccinia recondita = test: In vivo preventive test on Puccinia recondita (brown rust on wheat); settings: preventive spray, 500 ppm of active ingredient, grading 12 days after contamination
Outline: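 Wheat (Scipion) at the 1-leaf stage was sprayed with compound and inoculated 24 h later with P. recondita spores (100 000 spores/mL). Plants were held 24 h at 20° C/100% RH, then 10 days at 20° C/70-80% RH. Efficacy (%) was graded 12 days post-inoculation against solvent-treated controls.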

Alternaria brassicae = test: In vivo preventive test on Alternaria brassicae (leaf spot on radish); settings: preventive spray, 500 ppm of active ingredient, grading 6 days after contamination
Procedure: Radish plants (“Pernod Clair” variety), sown in starter cups on a 50/50 peat soil pozzolana substrate and grown at 17° C., are treated at the cotyledon stage by spraying with the active ingredient prepared as described above. Plants, used as controls, are treated with the mixture of acetone/tween/DMSO/water not containing the active material. After 24 hours, the plants are contaminated by spraying the cotyledons with an aqueous suspension of Alternaria brassicae spores (50 000 spores per mL). The spores are collected from a 15-day-old culture. The contaminated radish plants are incubated at 20° C. and at 100% relative humidity. Grading (% of efficacy) is carried out 6 days after the contamination, in comparison with the control plants.

Pyricularia oryzae = format: in vivo; settings: rice, preventive spray, 500 ppm of active ingredient, grading 6 days after contamination
[1] = log P by HPLC on reversed-phase column (C 18), EEC Directive 79/831 Annex V.A8; format: physicochemical; settings: 40° C., 0.1% aqueous formic acid and acetonitrile, linear gradient 10% to 90% acetonitrile
Outline: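 Reversed-phase C18 HPLC at 40° C, 0.1% aqueous formic acid/acetonitrile gradient from 10% to 90% acetonitrile. log P derived from retention times by linear interpolation between unbranched alkan-2-ones (3–16 carbons) of known log P.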

Alternaria solani = test: In vivo preventive test on Alternaria solani (tomato); settings: preventive spray, 500 ppm of active ingredient, evaluated 7 days after inoculation
Procedure: Solvent: 49 parts by weight of N,N-dimethylformamide Emulsifier: 1 part by weight of alkylaryl polyglycol ether To produce a suitable preparation of active compound, 1 part by weight of active compound is mixed with the stated amounts of solvent and emulsifier, and the concentrate is diluted with water to the desired concentration. To test for preventive activity, young plants are sprayed with the preparation of active compound at the stated rate of application. One day after this treatment, the plants are inoculated with an aqueous spore suspension of Alternaria solani. The plants remain for one day in an incubation cabinet at approximately 22° C. and a relative atmospheric humidity of 100%. Then the plants are placed in an incubation cabinet at approximately 20° C. and a relative atmospheric humidity of 96%.

Pyrenophora teres [2] = test: In vivo preventive test on Pyrenophora teres (barley); settings: preventive spray (DMF/alkylaryl polyglycol ether), 500 ppm of active ingredient, evaluated 7-9 days after inoculation
Outline: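 Young barley plants sprayed preventively with compound in DMF/emulsifier diluted in water, then inoculated one day later with aqueous P. teres spore suspension. Held 48 h at 22 °C and 100% relative humidity, then greenhouse at about 20 °C and 80% humidity.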

Pyrenophora teres [3] = test: In vivo preventive test on Pyrenophora teres (barley) - 2nd test; settings: 2nd test (acetone/tween/DMSO), 500 ppm of active ingredient, grading 14 days after contamination
Procedure: Barley plants (“Plaisant” variety), sown in starter cups on a 50/50 peat soil pozzolana substrate and grown at 22° C., are treated at the 1 leaf stage (10 cm height) by spraying with the active ingredient prepared as described above. Plants, used as controls, are treated with the mixture of acetone/tween/DMSO/water not containing the active material. After 24 hours, the plants are contaminated by spraying the leaves with an aqueous suspension of Pyrenophora teres spores (12 000 spores per mL). The spores are collected from a 12-day-old culture. The contaminated barley plants are incubated for 48 hours at 20° C. and at 100% relative humidity, and then for 12 days at 20° C. at 70-80% relative humidity. Grading (% of efficacy) is carried out 14 days after the contamination, in comparison with the control plants.

Botrytis cinerea = test: In vivo preventive test on Botrytis cinerea (grey mould) - 2nd test; settings: gherkin plants, 2nd test (acetone/tween/DMSO), 500 ppm of active ingredient, grading 4 to 5 days after contamination
Procedure: Gherkin plants (“Vert petit de Paris” variety), sown in starter cups on a 50/50 peat soil pozzolana substrate and grown at 24° C., are treated at the Z11 cotyledon stage by spraying with the active ingredient prepared as described above. Plants, used as controls, are treated with the mixture of acetone/tween/DMSO/water not containing the active material. After 24 hours, the plants are contaminated by spraying the cotyledons with an aqueous suspension of cryopreserved Botrytis cinerea spores (50 000 spores per mL). The spores are suspended in a nutrient solution composed of 10 g/L of PDB, 50 g/L of D-Fructose, 2 g/L of NH4NO3 and 1 g/L of KH2PO4. The contaminated gherkin plants are incubated at 17° C. and at 90% relative humidity. Grading (% of efficacy) is carried out 4 to 5 days after the contamination, in comparison with the control plants.

Uromyces appendiculatus = test: In vivo preventive test on Uromyces appendiculatus (bean rust); settings: bean plants, preventive spray, 500 ppm of active ingredient, grading 11 days after contamination
Procedure: Bean plants (“Saxa” variety), sown in starter cups on a 50/50 peat soil pozzolana substrate and grown at 24° C., are treated at the 2 leaf stage (9 cm height) by spraying with the active ingredient prepared as described above. Plants, used as controls, are treated with the mixture of acetone/tween/DMSO/water not containing the active material. After 24 hours, the plants are contaminated by spraying the leaves with an aqueous suspension of Uromyces appendiculatus spores (150 000 spores per mL). The spores are collected from infected plants and are suspended in water containing 2.5 mL/L of Tween 80 at 10%. The contaminated bean plants are incubated for 24 hours at 20° C. and at 100% relative humidity, and then for 10 days at 20° C. and at 70-80% relative humidity. Grading (% of efficacy) is carried out 11 days after the contamination, in comparison with the control plants.

SMILES | Efficacy (Sphaerotheca fuliginea) [%] | Efficacy (Septoria tritici) [%] | Efficacy (Puccinia recondita) [%] | Efficacy (Alternaria brassicae) [%] | Efficacy (Pyricularia oryzae) [%] | logP [1] | Efficacy (Alternaria solani) [%] | Efficacy (Pyrenophora teres [2]) [%] | Efficacy (Pyrenophora teres [3]) [%] | Efficacy (Botrytis cinerea) [%] | Efficacy (Uromyces appendiculatus) [%] | chromatographic logP [1]
C[Si](C)(CN(C(=O)c1cccnc1C(F)F)C1CC1)c1ccc(F)cc1Cl [Example 45] | 83 | 80 | 75 | 90 | 83 | 3.96 | – | – | – | – | – | –
C[Si](C)(CN(C(=O)c1cccnc1Cl)C1CC1)c1ccc(F)cc1Cl [Example 46] | – | – | – | – | 92 | 4.06 | – | – | – | – | – | –
C[Si](C)(CNC(=O)c1cccnc1C(F)F)c1ccccc1 [Example 1, 2-(difluoromethyl)-N-{[dimethyl(phenyl)silyl]methyl}nicotinamide] | 98 | 100 | 88 | – | – | – | 95 | 90 | 79 | 89 | 100 | 2.71
